One assay has as its target T1, Leucotriene D4 Receptor (Cavia porcellus, UniProt Q2NNR5).
T1 construct: guinea pig pulmomembranous protein; from tissue; host or cells: guinea pig lung membranes
T1 sequence (Q2NNR5 1-340): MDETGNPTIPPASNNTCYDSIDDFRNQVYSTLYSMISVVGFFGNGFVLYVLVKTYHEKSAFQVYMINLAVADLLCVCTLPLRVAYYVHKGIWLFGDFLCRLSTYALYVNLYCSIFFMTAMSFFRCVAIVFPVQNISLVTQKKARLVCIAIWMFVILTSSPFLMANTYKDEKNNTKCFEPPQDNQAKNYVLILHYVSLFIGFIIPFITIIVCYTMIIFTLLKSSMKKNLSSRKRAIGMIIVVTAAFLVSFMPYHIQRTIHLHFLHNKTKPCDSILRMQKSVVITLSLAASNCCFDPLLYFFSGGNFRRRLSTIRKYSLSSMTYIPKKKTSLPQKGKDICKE
Put plainly: Leucotriene D4 Receptor Binding Inhibition Test. Details: species or system guinea pig. The method, then:
An ice-cooled tris hydrochloride/sodium chloride buffer (10 mM/100 mM, pH 7.5) was added to terminate the reaction, followed by immediate filtration through a Wattman CF/C filter. The filter was washed twice with 20 ml aliquots of the ice-cooled buffer. The radioactivity of the residue was measured by a liquid scintillation counter. […] Using the Cheng-Prusoff formula, a dissociation constant (KD) was calculated from the IC50. […] Incidentally, the values in Table 2 indicate dissociation constants KD (mol).

Assay [1] concerns isolated guinea pig ileum. Nature of the assay: Antileucotriene D4 Action (In Vitro Test): leukotriene D4 contractile response of isolated guinea pig ileum. The class given is cell-based. The settings on record: Cavia porcellus, 0.5 h; read-out: Anti-LT action (IC50). The method, then: Antileucotriene D4 Action (In Vitro Test)
An isolated guinea pig ileum was cut into about 2 cm lengths. Each ileum piece was suspended in a 20-ml container filled with the Krebs buffer. […] The Krebs buffer was controlled at 37° C., through which a mixed gas (95%O2 -5%CO2) was bubbled. […] After the ileum piece was washed several times with the buffer, a test compound (will be identified by its example number; this will apply likewise hereinafter) of a predetermined specific concentration was added.

A further assay deals with airway. The conditions noted are these: Larsen & Acosta 1993, cited from earlier work.
Setting [2] is: 0.2 nM [3H]leukotriene D4, guinea pig pulmomembranous protein, pH 7.5, 30 min, calculated from IC50 by Cheng-Prusoff formula, read-out: LTD receptor, dissociation constant KD.
Where [3] appears, read: read-out: LTD receptor, dissociation constant KD.

Read-outs that look alike come from different tables or passages of the source.

Usually Kd stands for the constant that tells how readily two partners part at equilibrium. For orientation: IC50 means the concentration that inhibits the measured activity by half.

For the molecule `Cn1c(COc2cccc(-c3cc(=O)c4cc(Br)cc(C(=O)O)c4o3)c2)nc2ccccc21` [Example 28, 6-bromo-8-carboxy-3'-[2-(1-methylbenzimidazolyl)methoxy]flavone], the Kd on Leucotriene D4 Receptor (setting [2]) is 210 nM.

Regarding `O=c1cc(-c2cccc(/C=C/c3ccc4ccccc4n3)c2)oc2ccc(-c3nnn[nH]3)cc12` [Example 37, 3'-[2-(2-quinolinyl)ethenyl]-6-(5-tetrazolyl)flavone], the dissociation constant Kd at Leucotriene D4 Receptor (setting [2]) is 307 nM.

As to `O=C(O)c1cccc2c(=O)c(OCCN3C(=O)c4ccccc4C3=O)c(-c3ccc(OCc4ccc5ccccc5n4)cc3)oc12` [Example 31, 8-carboxy-3-(2-phthalimido)ethoxy-4'-[(2-quinolinyl)methoxy]flavone], the Kd on Leucotriene D4 Receptor (setting [3]) is 9160 nM.

In the case of `Cc1cc(C(=O)O)c2oc(-c3cccc(/C=C/c4ccc5ccccc5n4)c3)cc(=O)c2c1` [Example 43, 8-carboxy-6-methyl-3'-[2-(2-quinolinyl)ethenyl]flavone], the 50% inhibitory concentration (IC50) in assay [1] came out at 28 nM.

Turning to `O=C(O)c1cc(Br)cc2c(=O)cc(-c3cccc(OCc4ccc5ccccc5c4)c3)oc12` [Example 26, 6-bromo-8-carboxy-3'-(2-naphthylmethoxy)flavone], the Kd at Leucotriene D4 Receptor (setting [2]) was 1130 nM.

Take `CCOC(=O)c1cc(Br)cc2c(=O)cc(-c3cccc(OCc4nc5ccccc5n4C)c3)oc12` [Example 17, 6-bromo-8-ethoxycarbonyl-3'-[2-(1-methylbenzimidazolyl)methoxy]flavone]: the Kd on Leucotriene D4 Receptor (setting [3]) came to 210 nM.

In the case of `O=C(O)c1cc(Cl)cc2c(=O)cc(-c3cccc(/C=C/c4ccc5ccccc5n4)c3)oc12` [Example 41, 8-carboxy-6-chloro-3'-[2-(2-quinolinyl)ethenyl]flavone], in assay [1], the IC50 came to 15 nM.

In the case of `CCCCC/C=C\C\C=C/C=C/C=C/[C@@H](SC[C@H](NC(=O)CC[C@H](N)C(=O)O)C(=O)NCC(=O)O)[C@@H](O)CCCC(=O)O` [LTC4], the “effect on airway constriction relative to histamine” value in the assay with airway (inhaled, vs histamine) is listed as 1,000 times.

For `O=C(O)c1cc(Br)cc2c(=O)cc(-c3cccc(/C=C/c4ccc5ccccc5n4)c3)oc12` [Example 42, 8-carboxy-6-bromo-3'-[2-(2-quinolinyl)ethenyl]flavone], the 50% inhibitory concentration (IC50) in assay [1] amounted to 100 nM.

In the case of `O=C(O)c1cc(Br)cc2c(=O)cc(-c3cccc(OCc4ccc5ccccc5n4)c3)oc12` [Example 23, 6-bromo-8-carboxy-3'-(2-guinolinylmethoxy)flavone], the IC50 in assay [1] stood at 61 nM.

For `O=C(O)c1cccc2c(=O)c(O)c(-c3ccc(OCc4ccc5ccccc5n4)cc3)oc12` [Example 29, 8-carboxy-3-hydroxy-4'-[(2-quinolinyl)methoxy]flavone], the dissociation constant (Kd) on Leucotriene D4 Receptor (setting [3]) came to 805 nM.

For the molecule `CCCCC/C=C\C\C=C/C=C/C=C/[C@@H](SC[C@H](N)C(=O)O)[C@@H](O)CCCC(=O)O` [LTE4], in the assay with airway, the “activity compared with the other leucotrienes” value is recorded as “lower activities compared with the other leucotrienes” and the “duration of induced airway constriction” value is listed as “long lasting”.

Consider `O=C(O)c1cc(F)cc2c(=O)cc(-c3cccc(/C=C/c4ccc5ccccc5n4)c3)oc12` [Example 40, 8-carboxy-6-fluoro-3'-[2-(2-quinolinyl)ethenyl]flavone], for which the dissociation constant (Kd) at Leucotriene D4 Receptor (setting [2]) is 127 nM.

With “[^3 H]leukotriene D4 [reference compound]”, the Kd on Leucotriene D4 Receptor ([3H]leukotriene D4, guinea pig pulmomembranous protein, read-out: dissociation constant (KD) of radioligand) was determined as 0.216 nM. The same molecule yielded a Hill plot slope at Leucotriene D4 Receptor ([3H]leukotriene D4 binding) of 0.99.

On to `O=C(O)c1cccc2c(=O)cc(-c3cccc(/C=C/c4ccc5ccccc5n4)c3)oc12` [Example 39, 8-carboxy-3'-[2-(2-quinolinyl)ethenyl]flavone], for which the dissociation constant (Kd) on Leucotriene D4 Receptor (setting [3]) worked out at 17.3 nM.

For `O=C(O)c1cc(Br)cc2c(=O)cc(-c3cccc(OCc4nc5ccccc5s4)c3)oc12` [Example 27, 6-bromo-8-carboxy-3'-(2-benzothiazolylmethoxy)flavone], the dissociation constant Kd on Leucotriene D4 Receptor (setting [2]) was 79.4 nM.

Regarding `O=c1cc(-c2cccc(/C=C/c3ccc4ccccc4n3)c2)oc2c(-c3nn[nH]n3)cc(Cl)cc12` [Example 45, 6-chloro-3'-[2-(2-quinolinyl)ethenyl]-8-(5-tetrazolyl)flavone], the Kd on Leucotriene D4 Receptor (setting [3]) was 11 nM.

With `CCOC(=O)c1cc(Br)cc2c(=O)cc(-c3cccc(OCc4ccc5ccc(Cl)cc5n4)c3)oc12` [Example 14, 6-bromo-8-ethoxycarbonyl-3'-[2-(7-chloroquinolinyl)methoxy]flavone], at Leucotriene D4 Receptor (setting [3]), the dissociation constant (Kd) is 11.1 nM.

Regarding `CCOC(=O)c1cc(Br)cc2c(=O)cc(-c3cccc(OCc4nc5ccccc5s4)c3)oc12` [Example 18, 6-bromo-8-ethoxycarbonyl-3'-[(2-benzothiazolinyl)methoxy]flavone], at Leucotriene D4 Receptor (setting [3]), the Kd came to 79.4 nM.

Values taken from US6136848A, “Flavone derivative and medicine comprising the same” (Kowa Co., Ltd., priority 1996, dated 2000).
